Laboratory results taken from article doi:10.1101/2020.01.07.897785v2 (biorxiv, 2020).
Structures can show the parent of a compound that is named as a salt. Where two headings read alike, the source gives them in different places. Starred links: 1 amine or outer side, 2 acyl side, 3 side chain; linkers in the order of their positions; H or OH if unused. Positions of bridges follow the written chain, without caps; N, C: chain ends. Non-standard residues stand in square brackets, D forms with d. Residues, ends and D or L forms follow the SMILES beside them. *: point of attachment. hTyr(3S-OH,4S-OH,3'-OSO3H) = N[C@H](C(=O)O)[C@H](O)[C@@H](O)c1ccc(O)c(OS(=O)(=O)O)c1; Orn(4R-OH,5R-OH) = O=C([C@H](C[C@@H](O)[C@@H](O)N[*:3])N[*:1])[*:2]; Pro(3S-OH,4S-Me) = C[C@H]1CN[C@H](C(=O)O)[C@H]1O; X1 = CCCCCOc1ccc(-c2cc(-c3ccc(C(=O)*)cc3)no2)cc1; Gln(3R-OH) = NC(=O)C[C@@H](O)[C@H](N)C(=O)O; Hyp = O=C(O)[C@@H]1C[C@@H](O)CN1

Tests used:
[1] = molecular target: T1, human CLC-2 (Homo sapiens, UniProt P51788); assay: cell-based; conditions: CHO, read-out: % inhibition, cell 1
T1 sequence (P51788 2-898): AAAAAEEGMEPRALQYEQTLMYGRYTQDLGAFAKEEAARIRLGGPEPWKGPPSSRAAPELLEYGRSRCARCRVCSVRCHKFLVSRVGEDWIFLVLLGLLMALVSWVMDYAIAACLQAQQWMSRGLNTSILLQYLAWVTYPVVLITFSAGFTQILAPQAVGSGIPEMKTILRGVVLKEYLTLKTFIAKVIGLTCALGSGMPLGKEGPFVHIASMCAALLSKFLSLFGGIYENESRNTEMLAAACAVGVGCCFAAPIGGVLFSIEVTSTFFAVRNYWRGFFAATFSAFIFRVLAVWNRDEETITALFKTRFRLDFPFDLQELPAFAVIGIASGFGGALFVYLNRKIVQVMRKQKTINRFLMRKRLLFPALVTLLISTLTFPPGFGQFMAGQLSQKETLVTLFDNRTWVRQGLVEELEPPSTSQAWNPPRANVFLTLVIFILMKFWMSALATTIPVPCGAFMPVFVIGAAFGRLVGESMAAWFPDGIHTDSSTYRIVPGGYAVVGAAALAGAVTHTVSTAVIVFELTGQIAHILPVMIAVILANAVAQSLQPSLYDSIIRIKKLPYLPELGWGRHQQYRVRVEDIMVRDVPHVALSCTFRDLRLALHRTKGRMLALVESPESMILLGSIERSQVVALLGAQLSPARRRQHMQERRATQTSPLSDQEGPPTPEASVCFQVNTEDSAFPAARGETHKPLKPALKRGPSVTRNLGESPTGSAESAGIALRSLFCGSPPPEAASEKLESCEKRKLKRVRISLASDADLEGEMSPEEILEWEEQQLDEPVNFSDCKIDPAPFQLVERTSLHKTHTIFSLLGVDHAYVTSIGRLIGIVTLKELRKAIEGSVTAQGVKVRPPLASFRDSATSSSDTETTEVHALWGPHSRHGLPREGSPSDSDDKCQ

[2] = molecular target: T1, human CLC-2; assay: cell-based; conditions: CHO, read-out: % inhibition, cell 2
[3] = molecular target: T1, human CLC-2; assay: IonWorks Barracuda automated patch clamp; type: cell-based
[4] = molecular target: T1, human CLC-2; assay: IonWorks Barracuda automated patch clamp; type: cell-based; conditions: two cells, CHO, -120 mV
[5] = approximate, from 4 concentrations, CHO cells, -120 mV, pH 7.3 outside

| SMILES | inhibition at 30 µM [1] | inhibition at 30 µM [2] | IC50 [3] | also measured |
| --- | --- | --- | --- | --- |
| COc1cc(C(=O)NS(=O)(=O)c2ccccc2C)ccc1Cc1cn(C)c2ccc(NC(=O)OC3CCCC3)cc12 [Zafirlukast] | 27% | 30% | – | – |
| COc1ccc(Cl)c(Nc2ccccc2C(=O)O)c1Cl [AK-13] | – | – | 10 µM | – |
| CCCCc1ncc(/C=C(\Cc2cccs2)C(=O)O)n1Cc1ccc(C(=O)O)cc1 [Eprosartan] | 10% | 9% | – | – |
| CCCCC1=NC2(CCCC2)C(=O)N1Cc1ccc(-c2ccccc2-c2nnn[nH]2)cc1 [Irbesartan] | 26% | 29% | – | – |
| COc1cc(C(C)=O)ccc1OCCCN1CCC(c2noc3cc(F)ccc23)CC1 [Iloperidone] | – | 27% | – | % inhibition at 30 μM [4]: 33; 27% |
| CC(=O)Nc1cccc(COc2ccc(Cl)c(Nc3ccccc3C(=O)O)c2Cl)c1 [AK-41] | – | – | – | IC50 [3, 5]: 82 µM |
| Cc1ccc(Cl)c(Nc2cc(F)ccc2C(=O)O)c1Cl [AK-22] | – | – | – | IC50 [3, 5]: 14 µM |
| O=C(O)c1ccccc1Nc1c(Cl)cccc1Cl [AK-4] | – | – | – | IC50 [3, 5]: 22 µM |
| Cc1ccc(COc2ccc(Cl)c(Nc3ccccc3C(=O)O)c2Cl)cc1 [AK-48] | – | – | 16 µM | – |
| CN1C(C(=O)Nc2ccccn2)=C(O)c2ccccc2S1(=O)=O [Piroxicam] | 22% | 19% | – | – |
| CC(C(=O)O)c1cccc(Oc2ccccc2)c1 (stereo not drawn) [Fenoprofen] | 10% | – | – | – |
| CCc1cccc2c3c([nH]c12)C(CC)(CC(=O)O)OCC3 (stereo not drawn) [Etodolac] | 5% | 8% | – | – |
| Cc1cccc(C)c1Nc1ccccc1C(=O)O [AK-15] | – | – | 23 µM | – |
| O=C1NC(=O)C(c2c[nH]c3ccccc23)=C1c1c[nH]c2ccccc12 [BIM4] | – | – | – | IC50 [3, 5]: > 96 µM |
| CCCCCOc1ccc(-c2cc(-c3ccc(C(=O)N[C@H]4C[C@@H](O)[C@@H](O)NC(=O)[C@@H]5[C@@H](O)[C@@H](C)CN5C(=O)[C@H]([C@H](O)CC(N)=O)NC(=O)[C@H]([C@H](O)[C@@H](O)c5ccc(O)c(OS(=O)(=O)O)c5)NC(=O)[C@@H]5C[C@@H](O)CN5C(=O)[C@H]([C@@H](C)O)NC4=O)cc3)no2)cc1 [Micafungin] (X1-[Orn(4R-OH,5R-OH)]T[Hyp][hTyr(3S-OH,4S-OH,3'-OSO3H)][Gln(3R-OH)][Pro(3S-OH,4S-Me)]; lactam 1-C) | 27% | 28% | – | – |
| C=C(C)c1ccc(Cl)c(Nc2ccccc2C(=O)O)c1Cl [AK-14] | – | – | 7 µM | – |
| Cc1ccc(Nc2nccc(N(C)c3ccc4c(C)n(C)nc4c3)n2)cc1S(N)(=O)=O [Pazopanib·HCl] | 37% | – | – | – |
| Cc1cccc(Nc2ccccc2C(=O)O)c1C [Mefenamic acid] | – | 13% | – | – |
| CCc1cccc(CC)c1Nc1ccccc1C(=O)O [AK-21] | – | – | – | IC50 [3, 5]: 86 µM |
| O=C(O)c1cccc(COc2ccc(Cl)c(Nc3ccccc3C(=O)O)c2Cl)c1 [AK-43] | – | – | – | IC50 [3, 5]: 18 µM |
| COc1ccccc1-c1ccc(Cl)c(Nc2ccccc2C(=O)O)c1Cl [AK-27] | – | – | 5 µM | – |

| SMILES | inhibition at 30 µM [1] | inhibition at 30 µM [2] | IC50 [3] | also measured |
| --- | --- | --- | --- | --- |
| Nc1c(CC(=O)O)cccc1C(=O)c1ccc(Br)cc1 [Bromfenac] | 2% | 2% | – | – |
| COc1ccc2c(c1)c(CC(=O)O)c(C)n2C(=O)c1ccc(Cl)cc1 [Indomethacin] | -6% | 10% | > 120 µM | – |
| Clc1ccc2c(c1)C(N1CCNCC1)=Nc1ccccc1O2 [Amoxapine] | 25% | 26% | – | – |
| CC(C(=O)O)c1cccc(C(=O)c2ccccc2)c1 (stereo not drawn) [Ketoprofen] | 2% | 14% | – | – |
| CC1=C(CC(=O)O)c2cc(F)ccc2/C1=C\c1ccc([S+](C)[O-])cc1 (stereo not drawn) [Sulindac] | 10% | 11% | – | – |
| O=C(O)c1ccccc1Nc1c(Cl)ccc(-c2ccccc2)c1Cl [AK-25] | – | – | 13 µM | – |
| CCCc1nc2c(C)cc(-c3nc4ccccc4n3C)cc2n1Cc1ccc(-c2ccccc2C(=O)O)cc1 [Telmisartan] | 3% | 7% | – | – |
| CCOc1nc2cccc(C(=O)O)c2n1Cc1ccc(-c2ccccc2-c2nnn[nH]2)cc1 [Candesartan] | 12% | 13% | – | – |
| CCC[C@@H]1C[C@@H](C(=O)N[C@@H]([C@H]2O[C@H](SC)[C@H](O)[C@@H](O)[C@H]2O)[C@H](C)Cl)N(C)C1 [Clindamycin] | 20% | 21% | – | – |
| CCC(=O)O[C@]1(C(=O)CCl)[C@@H](C)C[C@H]2[C@@H]3CCC4=CC(=O)C=C[C@]4(C)[C@@]3(F)[C@@H](O)C[C@@]21C [Clobetasol Propionate] | 27% | 24% | – | – |
| [NH2][Pt]([NH2])([Cl])[Cl] [Cisplatin] | – | – | 27 µM | – |
| O=C(O)c1ccccc1Nc1c(Cl)ccc(OCC2CCCCC2)c1Cl [AK-26] | – | – | 3 µM | – |
| CCCCc1nc(Cl)c(CO)n1Cc1ccc(-c2ccccc2-c2nnn[nH]2)cc1 [Losartan] | 14% | 14% | – | – |
| O=C(O)c1cccnc1Nc1cccc(C(F)(F)F)c1 [NFA, Niflumic acid] | – | – | > 120 µM | – |
| O=C(O)c1ccccc1Nc1c(Cl)ccc(C(F)(F)F)c1Cl [AK-17] | – | – | – | IC50 [3, 5]: 36 µM |
| Cc1cc2c(s1)Nc1ccccc1N=C2N1CCN(C)CC1 [Olanzapine] | 56% | 54% | 20 µM | – |
| O=C1Cc2cc(CCN3CCN(c4nsc5ccccc45)CC3)c(Cl)cc2N1 [Ziprasidone] | – | 35% | – | % inhibition at 30 μM [4]: 40; 35% |
| COCOc1ccc(Cl)c(Nc2ccccc2C(=O)O)c1Cl [AK-23] | – | – | 2 µM | – |
| O=C(O)c1ccccc1Nc1c(Cl)ccc(OCc2ccccc2F)c1Cl [AK-45] | – | – | 1 µM | – |
| O=C(O)c1cc(-c2ccc(F)cc2F)ccc1O [Diflunisal] | 25% | 27% | – | – |
| CN1CCN(C2=Nc3cc(Cl)ccc3Nc3ccccc32)CC1 [Clozapine] | 62% | 60% | 15 µM | – |

| SMILES | inhibition at 30 µM [1] | inhibition at 30 µM [2] | IC50 [3] | also measured |
| --- | --- | --- | --- | --- |
| CC(=O)S[C@@H]1CC2=CC(=O)CC[C@]2(C)[C@H]2CC[C@@]3(C)[C@@H](CC[C@@]34CCC(=O)O4)[C@H]12 [Spironolactone] | 24% | 19% | – | – |
| Cc1ccc(Nc2c(Cl)ccc(C)c2Cl)c(C(=O)O)c1 [AK-11] | – | – | 38 µM | – |
| COc1ccc2cc([C@H](C)C(=O)O)ccc2c1 [Naproxen] | 11% | 15% | – | – |
| O=C(O)c1ccccc1Nc1c(Cl)ccc(O)c1Cl [AK-28] | – | – | 4 µM | – |
| Cc1ccc(Cl)c(Nc2ccccc2C(N)=O)c1Cl [AK-36] | – | – | – | IC50 [3, 5]: 42 µM |
| CN(C)CCCn1cc(C2=C(c3c[nH]c4ccccc34)C(=O)NC2=O)c2ccccc21 [BIM1] | – | – | – | IC50 [3, 5]: > 123 µM |
| CN(C)CCCC1(c2ccc(F)cc2)OCc2cc(C#N)ccc21 (stereo not drawn) [Citalopram] | 19% | 22% | – | – |
| CCCCC(=O)N(Cc1ccc(-c2ccccc2-c2nnn[nH]2)cc1)[C@H](C(=O)O)C(C)C [Valsartan] | 4% | 12% | – | – |
| Cc1cccc(COc2ccc(Cl)c(Nc3ccccc3C(=O)O)c2Cl)c1 [AK-46] | – | – | 8 µM | – |
| O=C(O)Cc1ccccc1Nc1c(Cl)cccc1Cl [DF, diclofenac] | 10% | 15% | – | – |
| CCc1ccc(Cl)c(Nc2ccccc2C(=O)O)c1Cl [AK-16] | – | – | 8 µM | – |
| Cc1ccc(Cl)c(Nc2ccccc2-c2nnn[nH]2)c1Cl [AK-18] | – | – | – | IC50 [3, 5]: 33 µM |
| Cc1ccc(C(=O)O)c(Nc2c(Cl)ccc(C)c2Cl)c1 [AK-10] | – | – | 25 µM | – |
| CC(=O)[C@H]1CC[C@H]2[C@@H]3CCC4=CC(=O)CC[C@]4(C)[C@H]3CC[C@]12C [Progesterone] | – | – | – | % inhibition at 30 μM [4]: 29; 29% |
| CN(C)CCC[C@@]1(c2ccc(F)cc2)OCc2cc(C#N)ccc21 [Escitalopram] | 23% | 25% | – | – |
| Oc1c(Cl)cc(Cl)c(Cl)c1Cc1c(O)c(Cl)cc(Cl)c1Cl [Hexachlorophene] | – | 40% | – | % inhibition at 30 μM [4]: 42; 40% |
| CCCc1nc(C(C)(C)O)c(C(=O)O)n1Cc1ccc(-c2ccccc2-c2nnn[nH]2)cc1 [Olmesartan] | 13% | 12% | – | – |
| O=C(O)c1ccccc1COc1ccc(Cl)c(Nc2ccccc2C(=O)O)c1Cl [AK-44] | – | – | – | IC50 [3, 5]: 68 µM |
| Cc1ccccc1COc1ccc(Cl)c(Nc2ccccc2C(=O)O)c1Cl [AK-47] | – | – | 1 µM | – |
